Test results reported in patent US7223397B1, “Potentiation of anti-CD38-Immunotoxin cytotoxicity” (priority 1999, dated 2007).
Like-named read-outs stand apart in the source and are kept apart here.

What was measured:
[1] = test system: HL-60 cells with a mutated RARα gene; experiment: MTS cell viability assay, retinoic acid-resistant HL60R cells; format: cell-based
Description: These cells are resistant to retinoic acid-induced expression of the CD38 antigen due to a point mutation in the retinoic acid receptor alpha (RARα) gene. The cell line was cultured with increasing concentrations of immunotoxin (in ng/ml) under different conditions.
HL-60 cells with a mutated RARα gene that renders the cells resistant to the effects of retinoic acid were treated with immunotoxin in either the presence or absence of 5 nM retinoic acid.

[2] = test system: CD38; experiment: CD38 expression in tumor cells by flow cytometry after RA treatment; format: cell-based; details: 5 nM RA
Description: Table I lists the potential targets for anti-CD38 bound toxin treatment A number of different lymphoid tumor cell lines were treated with 5 nM all-trans-retinoic acid (RA). Afterwards, the expression of CD38 in untreated versus treated cell was measured by flow cytometry. […] The increase in CD38 expression ranges from 2.5 to 20 fold. Thus, retinoic acid can be used in all of these tumor types to increase the vulnerability of the tumor cells to immunotoxin treatment.

[3] = test system: myeloid and lymphoid leukemia cells; details: retinoic acid 10^−13 M; cited from earlier work
[4] = test system: HL-60 cells; experiment: MTS cell viability assay, HL-60 cells; format: cell-based; details: 3 days, presence or absence of 5 nM retinoic acid
Description: HL-60 cells were incubated with either immunotoxin alone or in the presence of 5 nM retinoic acid (RA). Increasing concentrations of unconjugated IB4 monoclonal antibody were added to the cells incubated with immunotoxin and retinoic acid. After three days, the cells were assayed for viability with the MTS assay. Briefly, 6.5 mg/ml MTS solution [(3-(4,5-dimethylthiazol-2-yl)-5-(3-carboxymethoxyphenyl)-2-(4-sulfophenyl)-2H-tetrazolium] and 0.5 mM PMS (phenazine methosulfate) solution were mixed at a ratio of 20:1. 20 μl of the combined MTS/PMS solution was placed in each well of a 96 well plate containing samples of the cells to be tested. The plate was incubated for 1–4 hours at 37° C. in a 5% CO2 atmosphere, after which time, the amount of formazan produced by live cells from cellular reduction of MTS was measured by reading the absorbance at 490 nm. The results are shown in FIG. 2.
HL-60 cells were preincubated overnight in either the presence or absence of 5 nM all-trans-retinoic acid. The cells were washed twice and incubated in increasing concentrations of immunotoxin in either the presence or absence of IB4 unconjugated anti-CD38 MoAb. After three days, the cell were assayed for viability.
HL-60 cells were incubated for three days with increasing concentrations of either immunotoxin or gelonin in either the presence or absence of 5 nM retinoic acid. […]

| Molecule | cell death (MTS) [1] | CD38 after RA treatment ([2]; AML cells) | CD38 after RA treatment ([2]; APL cells) | CD38 after RA treatment ([2]; Lymphomas) | CD38 after RA treatment ([2]; Myelomas) | induction of CD38 cell surface antigen expression [3] [fold] | toxic effect (MTS cell viability) [4] | cell death (MTS) ([1]; HL60R (mutated RARα), 3 days) |
| --- | --- | --- | --- | --- | --- | --- | --- | --- |
| CC1=C(/C=C/C(C)=C/C=C/C(C)=C/C(=O)O)C(C)(C)CCC1 [RA, all-trans-retinoic acid] | no appreciable cell death | 180 ± 20 | 120 ± 30 | 210 ± 10 | 180 ± 25 | 4 | – | – |
| gelonin | – | – | – | – | – | – | no toxic effect | no appreciable cell death |
